Results taken from patent publication US20200399238A1, “THERAPEUTIC AURONES” (MIDDLE TENNESSEE STATE UNIVERSITY, priority 2016, published 2020).
Read-outs that look alike come from different tables or passages of the source.

What was measured:
[1] = system: rat skeletal muscle cell line, L6; assay: cells; assay type: cell-based
Protocol: Cells were maintained in high glucose DMEM obtained from HyClone Laboratories (Logan, Utah) and supplemented with FCS and P/S at the same concentrations used for parasite culture. Cells were passaged every 3-4 days and maintained in a 37° C. humidified incubator in an atmosphere of 5% CO2. For assays. cells were detached, counted using a hemocytometer, and adjusted using fresh media to deliver 5×10^3 cells per well (90 μL) in black walled, flat clear bottom 96-well microtiter plates. After 3 h incubation for attachment, compounds diluted in culture medium were added (10 μL) to triplicate wells. Positive controls (cells treated with podophyllotoxin (Sigma, St. Louis, Mo.)), negative controls (untreated cells), solvent controls (DMSO) and media blanks were included on each plate. Following incubation for 71.5 h, 11 μL of PrestoBlue was added into each well.

[2] = system: Leishmania amazonensis promastigotes expressing beta-lactamase; assay: microbe, parasite or virus in culture; assay type: cell-based
Protocol: Leishmania amazonensis promastigotes expressing beta-lactamase (Buckner et al., Am. J. Trop. Med. Hyg. 72 (2005) 600-605. doi:72/5/600 [pii]) were cultured in RPMI supplemented with 10% fetal calf serum and 1% pen-strep-glut solution (Sigma) at 27° C. Stationary phase promastigotes were adjusted in fresh media, treated with compounds, and incubated at 37° C. At 24 hours, 100 uL of cultures was added to 50 uL of the CellTiter Glo® solution. Luminescence readings were taken with a spectrophotometer and used to calculate inhibition.

[3] = system: Trypanosoma cruzi Tulahuen cells expressing beta-galactosidase; assay: T. cruzi intracellular assay (beta-galactosidase, L6 host cells)
[4] = system: Trypanosoma brucei brucei 427 cells; assay: T. brucei culture and assay (PrestoBlue); assay type: cell-based
[5] = Rattus norvegicus, Table 1, read-out: IC50 Toxicity (L6)
[6] = Leishmania amazonensis, read-out: IC50 L. amaz.
[7] = Trypanosoma cruzi, TULAHUEN, read-out: IC50 T. cruzi, Table 1, intracellular assay, mean of 2(+) trials (^c one trial)
[8] = Trypanosoma cruzi, TULAHUEN, read-out: IC50 T. cruzi, Table 2, intracellular assay, mean of 2(+) independent trials
[9] = Trypanosoma brucei, Table 1, mean of 2(+) independent trials, read-out: IC50 T. brucei
[10] = Table 2, L6 mammalian cells, read-out: IC50 Toxicity (L6)
[11] = Table 2, L6 IC50 / L. amazonensis IC50
[12] = Table 2, mean of 2(+) independent trials, read-out: IC50 T. brucei
[13] = Rattus norvegicus, Table 3A, weighted means of two or more independent trials, read-out: IC50 L6
[14] = Table 1, intracellular T. cruzi IC50
[15] = Table 3A, estimated from highest L6 dose tested where no L6 IC50
[16] = Trypanosoma cruzi, TULAHUEN, read-out: IC50 TC-I, Table 3A, weighted means of two or more independent trials
[17] = Table 2, L6 IC50 / T. cruzi IC50 (intracellular assay)
[18] = Table 2, L6 IC50 / T. brucei IC50
[19] = Table 3C, estimated from highest L6 dose tested where L6 IC50 not reached
[20] = Leishmania amazonensis, read-out: IC50 L. amaz. (footnote c: value obtained from one trial)
[21] = Rattus norvegicus, Table 3B, weighted means of two or more independent trials, read-out: IC50 L6
[22] = Trypanosoma cruzi, TULAHUEN, read-out: IC50 TC-I, Table 3B, weighted means of two or more independent trials

SMILES	IC50 [1, 5] [µM]	IC50 [2, 6] [µM]	IC50 [3, 7] [µM]	IC50 [3, 8] [µM]	IC50 [4, 9] [µM]	IC50 [1, 10] [µM]	Selectivity L6/La [2, 11]	IC50 [1, 13] [µM]	Selectivity L6/La ([2]; Table 1)	Selectivity L6/Tc [3, 14]	Selectivity L6/TC-I [3, 15]	IC50 [3, 16] [µM]	Selectivity L6/Tc [3, 17]	Selectivity L6/Tb ([4]; Table 1)	Selectivity L6/Tb [4, 18]	further results
COc1ccc(/C=C2\Oc3cc(O)ccc3C2=O)cc1O [Aurone 2911, (Z)-6-hydroxy-2-(3-hydroxy-4-methoxybenzylidene)benzofuran-3(2H)-one]	52.6	6.51	> 50	> 50	> 50	–	–	–	–	–	–	–	–	–	–	–
COc1ccc(/C=C2\Oc3cc(O)ccc3C2=O)c(OC)c1OC [Aurone 2912, (Z)-6-hydroxy-2-(2,3,4-trimethoxybenzylidene)benzofuran-3(2H)-one]	> 100	25.7	> 50	–	> 50	–	–	–	–	–	–	–	–	–	–	–
O=C1/C(=C/[c-]2cccc2)Oc2ccccc21.[Fe+2].c1cc[cH-]c1 [Aurone 3001]	–	–	–	–	–	> 100	>100	–	–	–	–	–	–	–	–	IC50 ([1]; Table 1, read-out: IC50 Toxicity (L6)): > 100 µM; IC50 ([1]; Table 3C, weighted means of two or more independent trials, read-out: IC50 L6): > 100 µM; IC50 ([2]; Table 1, mean of 2(+) trials, ^c value from one trial, read-out: IC50 L. amaz.): < 1 µM; IC50 ([2]; Table 2, mean of 2(+) independent trials, read-out: IC50 L. amaz.): < 1 µM; IC50 ([3]; read-out: IC50 T. cruzi, Table 1, intracellular assay, mean of 2(+) trials (^c one trial)): > 50 µM; IC50 ([3]; read-out: IC50 T. cruzi, Table 2, intracellular assay, mean of 2(+) independent trials): > 50 µM; IC50 ([3]; read-out: IC50 TC-I, Table 3C, intracellular T. cruzi, weighted means of two or more independent trials): > 50 µM; IC50 ([4]; Table 1, mean of 2(+) independent trials, read-out: IC50 T. brucei): > 50 µM; IC50 [4, 12]: > 50 µM; IC50 ([4]; Table 3C, weighted means of two or more independent trials, read-out: IC50 TB): > 50 µM
N#Cc1ccccc1/C=C1\Oc2ccccc2C1=O [Aurone 3007, (Z)-2-((3-oxobenzofuran-2(3H)-ylidene)methyl)benzonitrile]	> 100	17.6	46.6	–	> 50	–	–	> 100	>5.69	>2.14	>2.14	46.6	–	–	–	–
COc1ccc(/C=C2\Oc3ccccc3C2=O)cc1 [Aurone 6601, (Z)-2-(4-methoxybenzylidene)benzofuran-3(2H)-one]	> 100	3.3	10.8	10.8	40.3	> 100	>30.30	> 100	>30.30	>9.28	>9.28	10.8	>9.28	>2.48	>2.48	Selectivity L6/Tb [4, 15]: >2.48
O=C1/C(=C/c2ccccc2)Oc2ccccc21 [Aurone 6615, (Z)-2-benzylidenebenzofuran-3(2H)-one]	329	4.13	15.8	15.8	40.1	–	–	329	79.77	20.88	20.88	15.8	20.88	8.22	8.22	Selectivity L6/Tb [4, 15]: 8.22
O=C1/C(=C/c2ccc(/C=C3\Oc4ccccc4C3=O)cc2)Oc2ccccc21 [Aurone 6617, (2Z,2′Z)-2,2′-(1,4-phenylenebis(methanylylidene))bis(benzofuran-3(2H)-one)]	> 400	3.62	39.1	39.1	35.4	> 400	>110.50	–	>110.50	>10.22	–	–	>10.22	>11.31	>11.31	IC50 ([1]; Rattus norvegicus, Table 3C, weighted means of two or more independent trials, read-out: IC50 L6): > 400 µM; Selectivity L6/TC-I [3, 19]: >10.22; IC50 ([3]; Trypanosoma cruzi, TULAHUEN, read-out: IC50 TC-I, Table 3C, intracellular T. cruzi, weighted means of two or more independent trials): 39.1 µM; Selectivity L6/Tb [4, 19]: >11.31
COc1ccc(/C=C2\Oc3cc(O)ccc3C2=O)cc1 [Aurone 6620, (Z)-6-hydroxy-2-(4-methoxybenzylidene)benzofuran-3(2H)-one]	> 100	< 1	35.1	35.1	< 1	> 100	>100	–	>100	>2.85	–	–	>2.85	>100	>100	IC50 [2, 20]: < 1 µM; IC50 [4, 12]: < 1 µM
O=C1/C(=C/c2cnc[nH]2)Oc2ccccc21 [Aurone 6621, (Z)-2-((1H-imidazol-5-yl)methylene)benzofuran-3(2H)-one]	> 100	> 50	18.3	18.3	1.56	> 100	–	–	–	>5.45	–	–	>5.45	>64.10	>64.10	IC50 [1, 21]: > 100 µM; IC50 ([2]; read-out: IC50 L. amaz., Table 2, mean of 2(+) independent trials): > 50 µM; Selectivity L6/Tc-I ([3]; Table 3B, estimated from highest L6 dose tested where no L6 IC50): >5.45; IC50 [3, 22]: 18.3 µM; IC50 ([4]; Trypanosoma brucei, read-out: IC50 TB): > 50 µM
COc1cc(OC)c2c(c1)O/C(=C\c1cccc([N+](=O)[O-])c1)C2=O [Aurone 7001]	> 100	22	> 50	–	> 50	–	–	–	–	–	–	–	–	–	–	–
CC(C)c1ccc(/C=C2\Oc3ccccc3C2=O)cc1 [Aurone 8002, (Z)-2-(4-isopropylbenzylidene)benzofuran-3(2H)-one]	89	2.88	16.6	16.6	43.4	–	–	–	–	–	–	–	–	–	–	IC50 [2, 20]: 2.88 µM
O=C1/C(=C/c2ccc(F)cc2)Oc2ccccc21 [Aurone 9002, (Z)-2-(4-fluorobenzylidene)benzofuran-3(2H)-one]	> 100	39.3	15.8	–	> 50	–	–	> 100	>2.54	>6.33	>6.33	15.8	–	–	–	–
O=C1/C(=C/c2ccc(Cl)cc2)Oc2ccccc21 [Aurone 9019, (Z)-2-(4-chlorobenzylidene)benzofuran-3(2H)-one]	> 100	41.5	5.53	5.53	34.7	> 100	>2.41	> 100	>2.41	>18.08	>18.08	5.53	>18.08	>2.88	>2.88	Selectivity L6/Tb [4, 15]: >2.88
O=C1/C(=C/c2cccc(Br)c2)Oc2ccccc21 [Aurone 9030, (Z)-2-(3-bromobenzylidene)benzofuran-3(2H)-one]	> 100	< 1	7.35	7.35	> 50	> 100	>100	> 100	>100	>13.61	>13.61	7.35	>13.61	–	–	IC50 [2, 20]: < 1 µM; IC50 [4, 12]: > 50 µM
O=C1/C(=C/c2c[nH]c3ccccc23)Oc2ccccc21 [Aurone 9062, (Z)-2-((1H-indol-3-yl)methylene)benzofuran-3(2H)-one]	64.7	1.66	8.53	8.53	24.8	–	–	–	–	–	–	–	–	–	–	IC50 [1, 21]: 64.7 µM; IC50 [3, 22]: 8.53 µM; IC50 ([3]; Trypanosoma cruzi, TULAHUEN, read-out: T. cruzi IC50 dose): < 10 µM
